# Reference: patent publication US20230242526A1 (Zentaur Therapeutics International Limited, priority 2020, published 2023)
# pIC50: −log10 of the molar value.
# Key:
# in vitro = settings: mouse, microsomes, pH 7.4, t1/2 mouse
# Description: Human liver microsomes (cat. No. 452161), mouse liver microsomes (cat. No. 452701), were purchased from Corning.
# Samples were analyzed using LC-MS/MS using a SCIEX API 4000 mass spectrometer coupled with Agilent HPLC analytical system. After separation on a ZORBAX XDB-C18 column (5 μm, 50×2.1 mm, column No. 50-282) using an acetonitrile-water gradient system, peaks were analyzed by mass spectroscopy (MS) using ESI ionization in Q1 and Q3 scan mode.
# The LC and MS are all controlled by Analyst software.
# The liver microsomes were incubated with 1.0 μM of the testing compound at 37° C. The incubation mixture contained 100 mM PBS buffer (pH=7.4), 3 mM MgCl2 and 1 mM NADPH. The concentration of liver microsome in the incubation mixture was 0.5 mg/mL for testing compound, and 0.2 mg/mL for MDZ and the total volume is 0.2 mL. […] Aliquots were withdrawn at time points of 0 min, 5 min and 20 min for MDZ. The reactions were terminated by transferring the aliquots to a methanol solution containing the internal standard […] for analytical quantification. The quenched samples were analyzed by LC-MS/MS. The incubations were carried out in duplicates. The metabolic stability of the testing compounds by the liver microsomes of human and mice is expressed as elimination half-life (t1/2). The results are shown as the means of duplicate determinations±SD.
# HCC1806 s.c. xenografts = experiment: HCC1806 s.c. breast cancer xenograft efficacy (tumor volume, relative tumor volume, tumor weight, TGI); type: in vivo, BALB/c nude mice; settings: 30 mg/kg P.O. BID; for Tumor Growth Inhibition D3 / Tumor Growth Inhibition D7 / Tumor Growth Inhibition D10 / Tumor Growth Inhibition D14 / Tumor Growth Inhibition D17 / Tumor Growth Inhibition D21: vs control vehicle; for Tumor Growth Inhibition D3 / Tumor volume D3: day 3; for Tumor Growth Inhibition D7 / Tumor volume D7: day 7; for Tumor Growth Inhibition D10 / Tumor volume D10: day 10; for Tumor Growth Inhibition D14 / Tumor volume D14: day 14; for Tumor Growth Inhibition D17 / Tumor volume D17: day 17; for Tumor Growth Inhibition D21 / Tumor volume D21: day 21; for Tumor volume D0 / Tumor volume D3 / Tumor volume D7 / Tumor volume D10 / Tumor volume D14 / Tumor volume D17 / Tumor volume D21 / Tumor weight: group mean; for Tumor volume D0: day 0; for Tumor weight: end of the study (Day 21)
# Description: The in vivo potency of anti-tumor activities of Comp. 4, Comp. 37, Comp. 5, Comp. 28, Comp. 163, and Comp. 164 have been evaluated on the growth of HCC1806 s.c. xenografts in BALB/c nude mice.
# The testing compounds Comp. 4, Comp. 37, Comp. 5, Comp. 28, Comp. 163, and Comp. 164 were prepared according the synthetic routes set forth in the above Examples. The testing formulations for compounds Comp. 4, Comp. 37, Comp. 5, Comp. 28, Comp. 163, and Comp. 164 were prepared as liquid formulation in a liquid vehicle containing 0.1% Tween-80 (purchased form Sinopharm Chemical Reagent Co., Ltd, Lot No. 20190322), 0.5% methyl cellulose (purchased from SIGMA, Lot No. SLBR8963V) in water.
# A total of 42+8 female BALB/c nude mice were ordered from Shanghai LC Laboratory Animal Co. Ltd. The animals were specific pathogen free and approximately 4-5 weeks old upon arrival at PharmaLegacy Laboratories.
# HCC1806 cell cultures were maintained at 37° C. under 5% CO2 in RPMI-1640 medium supplemented with 10% FBS and were subsequently cultured within 10 passages before inoculated into the mice.
# (§1) When the average tumor volume reached 80-120 mm^3, 42 tumor-bearing mice were randomized into 7 groups (6 mice per group) according to tumor volume. The grouping day was defined as Day 0. Treatment was applied immediately after grouping animals on the same day.
# (§2) The body weight of the testing animals were measured twice a week after grouping. Tumor volumes by the length and width of the tumor were measured by electric calipers and the tumor volume (V) was calculated as follows: V=(length×width^2)/2. The individual relative tumor volume (RTV) was calculated as follows: RTV=Vt/V0, where Vt was the volume on each day, and V0 was the volume at the beginning of the treatment.
# Tumors were collected at the end of the study (Day 21), the mice were sacrificed. Tumor was collected, weighed, photographed.
# (§3) Results were expressed as mean±S.E.M. Comparisons between two groups were made by corresponding test, p<0.05 were considered to be significant.
# [1] = Body weight in the HCC1806 xenograft study; type: in vivo, BALB/c nude mice; settings: 30 mg/kg P.O. BID; for Body weight D0 / Body weight D3 / Body weight D7 / Body weight D10 / Body weight D14 / Body weight D17 / Body weight D21: group mean; for Body weight D0: day 0; for Body weight D3: day 3; for Body weight D7: day 7; for Body weight D10: day 10; for Body weight D14: day 14; for Body weight D17: day 17; for Body weight D21: day 21
# Description: as §1, §2, §3
# CDK9/Cyclin T1 = CDK9/Cyclin T1 (Homo sapiens, UniProt P50750); experiment: CDK9/Cyclin T1 kinase assay; type: biochemical
# Description: (1). Recombinant enzymes CDK1, CDK2, CDK4, CDK6, CDK9, cyclin B1, cyclin A2, cyclin D3, cyclin E1, cyclin T1 were cloned and purified at Wuxi Biortus Biochemistry Co. Ltd.
# (8) Peptide substrate-CDK9 (Ahx-GSRTPMY-NH2, Scilight-Peptide, Cat. C0769102).
# The test compounds were dissolved and diluted in DMSO. A stock DMSO solution of the test compound of the invention was prepared by dissolving the compound in DMSO to form a 10 mM solution.
# 2 μL of testing compound solutions and 5 μL of enzyme solution were added into the 384-well microplate followed by a 10 minute incubation. The reaction was then initiated by the addition of 5 μL of peptide substrate and ATP mixture solution and incubated at 27° C. for 30 minutes. The enzyme reaction in each well was terminated by adding 4 μL of 120 mM EDTA solution. Each assay was carried out in duplicates.
# DMSO was used as negative control (0%) for enzyme activity. 20 μM Staurosporine was used as positive control (100%) for enzyme activity.
# Plates were read for fluorescence on a Caliper EZ Reader II by separating the fluorescent labeled substrate from the enzyme phosphorylation product by electrophoresis. Data were collected and analyzed using GraphPad Prism version 6.0 software.
# Dose-response curves were plotted from inhibition data generated, each in duplicate, from 10 point serial dilutions of inhibitory compounds. Concentration of compound was plotted against % kinase activity. To generate IC50 values, the dose-response curves were then fitted to a standard sigmoidal curve and IC50 values were derived by nonlinear regression analysis.
# CDK9/Cyclin T1, sequence (P50750 whole entry): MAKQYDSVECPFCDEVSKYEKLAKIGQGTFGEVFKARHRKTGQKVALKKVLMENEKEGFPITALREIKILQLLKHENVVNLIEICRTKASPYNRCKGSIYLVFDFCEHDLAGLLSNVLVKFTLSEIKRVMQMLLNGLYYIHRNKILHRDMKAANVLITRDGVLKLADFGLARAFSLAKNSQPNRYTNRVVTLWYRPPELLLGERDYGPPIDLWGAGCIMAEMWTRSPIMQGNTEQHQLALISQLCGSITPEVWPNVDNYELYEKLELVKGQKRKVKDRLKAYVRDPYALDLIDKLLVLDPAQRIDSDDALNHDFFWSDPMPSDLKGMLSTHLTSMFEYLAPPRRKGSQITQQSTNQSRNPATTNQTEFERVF
# CDK9/Cyclin T1, sequence (O60563 whole entry partner): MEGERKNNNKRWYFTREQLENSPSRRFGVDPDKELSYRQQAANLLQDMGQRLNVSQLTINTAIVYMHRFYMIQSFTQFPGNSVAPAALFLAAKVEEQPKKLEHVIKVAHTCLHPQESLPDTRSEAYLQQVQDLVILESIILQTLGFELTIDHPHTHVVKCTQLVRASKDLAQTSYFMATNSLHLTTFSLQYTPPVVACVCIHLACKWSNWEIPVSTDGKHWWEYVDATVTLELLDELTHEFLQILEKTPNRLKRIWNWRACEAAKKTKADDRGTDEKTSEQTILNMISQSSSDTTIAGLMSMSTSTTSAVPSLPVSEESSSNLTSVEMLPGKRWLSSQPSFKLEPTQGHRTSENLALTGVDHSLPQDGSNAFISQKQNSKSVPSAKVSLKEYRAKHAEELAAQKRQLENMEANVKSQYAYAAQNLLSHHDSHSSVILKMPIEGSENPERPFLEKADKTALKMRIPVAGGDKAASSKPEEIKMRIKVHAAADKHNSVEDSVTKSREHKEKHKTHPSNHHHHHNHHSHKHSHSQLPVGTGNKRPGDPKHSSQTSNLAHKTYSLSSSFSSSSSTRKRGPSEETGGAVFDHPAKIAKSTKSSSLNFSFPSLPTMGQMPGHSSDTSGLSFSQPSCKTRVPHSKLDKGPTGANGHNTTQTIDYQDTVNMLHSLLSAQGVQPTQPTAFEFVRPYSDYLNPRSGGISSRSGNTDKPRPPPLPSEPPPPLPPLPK
SMILES,half-life at 1 μM (in vitro),Tumor Growth Inhibition D3 (HCC1806 s.c. xenografts),Tumor Growth Inhibition D7 (HCC1806 s.c. xenografts),Tumor Growth Inhibition D10 (HCC1806 s.c. xenografts),Tumor Growth Inhibition D14 (HCC1806 s.c. xenografts),Tumor Growth Inhibition D17 (HCC1806 s.c. xenografts),Tumor Growth Inhibition D21 (HCC1806 s.c. xenografts),Tumor volume D0 (HCC1806 s.c. xenografts),Tumor volume D3 (HCC1806 s.c. xenografts),Tumor volume D7 (HCC1806 s.c. xenografts),Tumor volume D10 (HCC1806 s.c. xenografts),Tumor volume D14 (HCC1806 s.c. xenografts),Tumor volume D17 (HCC1806 s.c. xenografts),Tumor volume D21 (HCC1806 s.c. xenografts),Tumor weight (HCC1806 s.c. xenografts),Body weight D0 [1],Body weight D3 [1],Body weight D7 [1],Body weight D10 [1],Body weight D14 [1],further results
"Cc1cc2cnc(NC3CCN(S(C)(=O)=O)CC3)nc2n([C@@H]2CCC[C@@]2(C)O)c1=O [Comp. 4, (−)-8-(2-hydroxy-2-methylcyclopentyl)-6-methyl-2-((1-(methylsulfonyl)piperidin-4-yl)amino)pyrido[2,3-d]pyrimidin-7(8H)-one, reference compound]",16.5 min,30.25%,23.11%,−1.66%,6.35%,9.13%,6.55%,112.95 mm^3,241.73 mm^3,506.86 mm^3,1030.80 mm^3,1374.19 mm^3,1757.63 mm^3,2149.25 mm^3,3.63 g,18.11 g,17.90 g,18.56 g,19.59 g,19.85 g,body weight compared with G1 vehicle [1]: significant higher on day 21; Body weight D17 [1]: 20.49 g; Body weight D21 [1]: 20.80 g
"[2H]C(F)(F)c1cc2cnc(NC3CCN(S(C)(=O)=O)CC3)nc2n([C@@H]2CCC[C@@]2(C)O)c1=O [Comp. 28, (−)-6-(difluoromethyl-d)-8-((1R,2R)-2-hydroxy-2-methylcyclopentyl)-2-((1-(methylsulfonyl)piperidin-4-yl)amino)pyrido[2,3-d]pyrimidin-7(8H)-one]",182 min,15.44%,11.52%,15.19%,12.60%,26.69%,34.01%,111.13 mm^3,267.25 mm^3,564.40 mm^3,876.82 mm^3,1288.11 mm^3,1438.12 mm^3,1549.07 mm^3,2.84 g,17.93 g,17.81 g,17.78 g,17.66 g,17.75 g,pIC50 (CDK9/Cyclin T1): 5.44; body weight compared with G1 vehicle [1]: significant lower on day 17; Body weight D17 [1]: 17.84 g; Body weight D21 [1]: 16.80 g
"C[C@@]1(O)CCC[C@H]1n1c(=O)c(C(F)F)cc2cnc(NC3CCN(S(C)(=O)=O)CC3)nc21 [Comp. 5, (−)-6-(difluoromethyl)-8-((1R,2R)-2-hydroxy-2-methylcyclopentyl)-2-((1-(methylsulfonyl)piperidin-4-yl)amino)pyrido[2,3-d]pyrimidin-7(8H)-one, reference compound]",22 min,37.46%,42.30%,39.66%,42.80%,43.13%,44.1%,109.77 mm^3,225.24 mm^3,405.37 mm^3,654.51 mm^3,880.11 mm^3,1139.14 mm^3,1327.79 mm^3,2.22 g,18.43 g,18.07 g,18.12 g,17.82 g,18.25 g,"pIC50 (CDK9/Cyclin T1): 5.46; tumor volume compared with G1 vehicle on each day (HCC1806 s.c. xenografts): significant smaller tumor volume from day 7 to day 21; tumor weight at the end of the study, in words (HCC1806 s.c. xenografts): lighter tumor but no statistic significance; Body weight D17 [1]: 18.48 g; Body weight D21 [1]: 17.80 g"
"[2H]C([2H])([2H])c1cc2cnc(NC3CCN(S(C)(=O)=O)CC3)nc2n([C@@H]2CCC[C@@]2(C)O)c1=O [Comp. 37, (−)-8-((1R,2R)-2-hydroxy-2-methylcyclopentyl)-6-(methyl-d3)-2-((1-(methylsulfonyl)piperidin-4-yl)amino)pyrido[2,3-d]pyrimidin-7(8H)-one]",72 min,42.52%,49.20%,46.10%,44.43%,48.73%,46.8%,109.89 mm^3,216.01 mm^3,370.15 mm^3,596.52 mm^3,858.29 mm^3,1037.86 mm^3,1269.08 mm^3,2.10 g,18.25 g,18.23 g,18.10 g,18.01 g,18.80 g,"tumor volume compared with G1 vehicle on each day (HCC1806 s.c. xenografts): significant smaller tumor volume from day 3 to day 21; tumor weight at the end of the study, in words (HCC1806 s.c. xenografts): lighter tumor but no statistic significance; Body weight D17 [1]: 18.60 g; Body weight D21 [1]: 18.17 g"
